Data from PubChem BioAssay AID2060603 (Molecular Pharmacology Branch, DTP, NCI, 2025).
pIC50: −log10 of the molar value.

System: 422866-222-R5-J1-PDC spheroid viability
Test: Anticancer human tumor 422866-222-R5-J1-PDC patient-derived pancreatic adenocarcinoma cell line growth inhibition [CLK]
Details: spheroids with HUVEC and MSC; for pIC50: curve of first compound; for viability, T/C: stronger effect = lower value
Text: A high-throughput screen of multi-cell type tumor spheroids was designed to identify active combinations of […] and targeted small molecules. Complex spheroids include a stromal component modeled by human endothelial cells (HUVEC) and fibroblasts modeled by human mesenchymal stem cells (MSCs). The concentration ranges selected for each drug and investigational agent were based upon clinically achievable concentrations if the clinical Cmax of the agent was known.
Compounds. The drugs and investigational agents: cirtuvivint (SM08502; NSC835563), CC-671 (NSC850746), vemurafenib (NSC761431), tapotoclax (NSC804041), sotorasib (NSC818433), adagrasib (NSC831453), MRTX-1133 (NSC836407), BAY2416964 (NSC825713), copanlisib (NSC816437), inavolisib (NSC800729), abemaciclib (NSC768073), osimertinib (NSC779217), entinostat (NSC756642), eltanexor (KPT-8602, NSC794443), venetoclax (NSC766270), ceralasertib (NSC777638), bortezomib (NSC756655), olaparib (NSC753686), talazoparib (NSC767125), alisertib (NSC759677), peposertib (NSC802822), gemcitabine (NSC613327), 5-fluorouracil (NSC19893), SN-38 (NSC673596), oxaliplatin (NSC266046), paclitaxel (NSC125973), and doxorubicin (NSC123127), were obtained from the National Cancer Institute (NCI) Developmental Therapeutics Program Chemical Repository. The FDA-approved anticancer drug set is available from the Developmental Therapeutics Program at https://dtp.cancer.gov/organization/dscb/obtaining/available plates.htm. […] The stock solutions were prepared in dimethyl sulfoxide (DMSO, Sigma-Aldrich, St. Louis, MO, cat. D2650), except for the platinum complexes which were prepared in saline (Quality Biological, Gaithersburg, MD, cat. 114-055-101), at 800-fold the tested concentration and stored at -70 degrees C prior to their use. All drugs and investigational agents were tested over a range starting from a high concentration at or near the clinical Cmax and decreasing in half-log increments. If the clinical Cmax for an agent had not been determined, the highest concentration tested was 10 microM.
Cell Culture. All cells were maintained in an incubator at 37 degrees C and 5% CO2 with 95% humidity. The PDC lines were cultured according to standard operating procedures established by the NCI PDMR. Briefly, all PDCs were thawed and cultured in Matrigel-coated flasks prepared with a working solution of 1X Ham's F-12 nutrient mix, without supplementation (Invitrogen, Waltham, MA, cat. 11765054), 100 U/mL penicillin-streptomycin (Invitrogen, cat. 15140122), and 2.5% Matrigel (Corning Inc., Corning, NY, cat. 354248) for the first three passages. The 947758-054-R-J2-PDC line was cultured in 6B/Colon 1A media, which includes advanced DMEM/F-12 (Thermo Fisher Scientific, cat. 12634028), 10 mM HEPES (Thermo Fisher Scientific, cat. 15630080), 1X GlutaMAX supplement (Thermo Fisher Scientific, cat. 35050061), 0.1 mg/mL primocin (InvivoGen, cat. ant-pm-2), 10% defined fetal bovine serum, heat inactivated (HyClone Laboratories Inc., cat. SH30070.03HI), 1.25 mM N-Acetyl-L-cysteine (Sigma-Aldrich, cat. A9165), 10 mM nicotinamide (Sigma-Aldrich, cat. N0636), 1X B-27 supplement (Thermo Fisher Scientific, cat. 17504044), 1X N-2 supplement (Thermo Fisher Scientific, cat. 17502048), and 10 microM Y-27632 dihydrochloride (Tocris Bioscience, cat. 1254). The 876862-298-R-J1-PDC was cultured in 6E media, which includes all 6B/Colon 1A media components plus 50% L-WRN conditioned media (ATCC, cat. CRL-3276), 50 ng/mL recombinant human EGF recombinant protein (hEGF; Thermo Fisher Scientific, cat. PHG0311), 10 ng/mL recombinant human fibroblast growth factor 10 (hGFG-10; PeproTech, cat. 100-26), 1 ng/mL recombinant human fibroblast growth factor 2 (hFGF-2; PeproTech, cat. 100-18B), and 1 µM prostaglandin E2 (PGE2; Tocris, cat. 2296). The 227483-062-R1-J1-PDC line was cultured in Panc media, containing all 6E components except hFGF-2, with the addition of 500 nM SB-431542 (Selleckchem, cat. S1067) and 10 nM gastrin (Tocris, cat. 3006). […]

[1] = second compound 0.0316 µM, first compound 0.0316 µM
[2] = second compound 0.0316 µM, first compound 0.1 µM
[3] = second compound 0.0316 µM, first compound 0.316 µM
[4] = second compound 0.0316 µM, first compound 1 µM
[5] = second compound 0.0316 µM, first compound 3.16 µM
[6] = second compound 0.0316 µM, first compound 10 µM
[7] = second compound 0.1 µM, first compound 0.0316 µM
[8] = second compound 0.1 µM, first compound 0.1 µM
[9] = second compound 0.1 µM, first compound 0.316 µM
[10] = second compound 0.1 µM, first compound 1 µM
[11] = second compound 0.1 µM, first compound 3.16 µM
[12] = second compound 0.1 µM, first compound 10 µM
[13] = second compound 0.316 µM, first compound 0.0316 µM
[14] = second compound 0.316 µM, first compound 0.1 µM
[15] = second compound 0.316 µM, first compound 0.316 µM
[16] = second compound 0.316 µM, first compound 1 µM
[17] = second compound 0.316 µM, first compound 3.16 µM
[18] = second compound 0.316 µM, first compound 10 µM
[19] = second compound 1 µM, first compound 0.0316 µM
[20] = second compound 1 µM, first compound 0.1 µM
[21] = second compound 1 µM, first compound 0.316 µM
[22] = second compound 1 µM, first compound 1 µM
[23] = second compound 1 µM, first compound 3.16 µM
[24] = second compound 1 µM, first compound 10 µM
[25] = second compound 3.16 µM, first compound 0.0316 µM
[26] = second compound 3.16 µM, first compound 0.1 µM
[27] = second compound 3.16 µM, first compound 0.316 µM
[28] = second compound 3.16 µM, first compound 1 µM
[29] = second compound 3.16 µM, first compound 3.16 µM
[30] = second compound 3.16 µM, first compound 10 µM
[31] = second compound 10 µM, first compound 0.0316 µM
[32] = second compound 10 µM, first compound 0.1 µM
[33] = second compound 10 µM, first compound 0.316 µM
[34] = second compound 10 µM, first compound 1 µM
[35] = second compound 10 µM, first compound 3.16 µM
[36] = second compound 10 µM, first compound 10 µM
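Note: spheroids exposed to agents for seven days before readout.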

C=C(F)C(=O)N1CCN(c2nc(OCC3CCCN3C)nc3c2CCN(c2cccc4cccc(Cl)c24)C3)CC1CC#N (centres undefined) + CN1CCN(c2cc(C(=O)Nc3cc4cc(-c5cnn(C)c5)ccc4cn3)ccn2)CC1
pIC50 (second compound 0.0316 µM): > 7.50
pIC50 (second compound 0.1 µM): > 7.50
pIC50 (second compound 0.316 µM): > 7.50
pIC50 (second compound 1 µM): > 7.50
pIC50 (second compound 3.16 µM): > 7.50
pIC50 (second compound 10 µM): > 7.50
viability, T/C [1]: 40.6%
viability, T/C [2]: 29.3%
viability, T/C [3]: 27%
viability, T/C [4]: 26.2%
viability, T/C [5]: 15.9%
viability, T/C [6]: 2.17%
viability, T/C [7]: 45.5%
viability, T/C [8]: 33.9%
viability, T/C [9]: 29.3%
viability, T/C [10]: 25.1%
viability, T/C [11]: 19.9%
viability, T/C [12]: 1.79%
viability, T/C [13]: 42.4%
viability, T/C [14]: 30.6%
viability, T/C [15]: 27.9%
viability, T/C [16]: 20.1%
viability, T/C [17]: 20%
viability, T/C [18]: 0.13%
viability, T/C [19]: 19.9%
viability, T/C [20]: 18.5%
viability, T/C [21]: 18.6%
viability, T/C [22]: 16.4%
viability, T/C [23]: 10.2%
viability, T/C [24]: 0.1%
viability, T/C [25]: 4.24%
viability, T/C [26]: 4.94%
viability, T/C [27]: 4.57%
viability, T/C [28]: 3.86%
viability, T/C [29]: 4.64%
viability, T/C [30]: 0.71%
viability, T/C [31]: 3.87%
viability, T/C [32]: 0.7%
viability, T/C [33]: 0.93%
viability, T/C [34]: 0.72%
viability, T/C [35]: 0.46%
viability, T/C [36]: 0.15%

C=CC(=O)N1CCN(c2nc(=O)n(-c3c(C)ccnc3C(C)C)c3nc(-c4c(O)cccc4F)c(F)cc23)C(C)C1 (centres undefined) + CN1CCN(c2cc(C(=O)Nc3cc4cc(-c5cnn(C)c5)ccc4cn3)ccn2)CC1
pIC50 (second compound 0.0316 µM): > 7.50
pIC50 (second compound 0.1 µM): > 7.50
pIC50 (second compound 0.316 µM): > 7.50
pIC50 (second compound 1 µM): > 7.50
pIC50 (second compound 3.16 µM): > 7.50
pIC50 (second compound 10 µM): > 7.50
viability, T/C [1]: 44.6%
viability, T/C [2]: 30.4%
viability, T/C [3]: 40.1%
viability, T/C [4]: 30.5%
viability, T/C [5]: 29%
viability, T/C [6]: 35.3%
viability, T/C [7]: 46.9%
viability, T/C [8]: 38.4%
viability, T/C [9]: 36.6%
viability, T/C [10]: 38.7%
viability, T/C [11]: 35.1%
viability, T/C [12]: 38.5%
viability, T/C [13]: 42.7%
viability, T/C [14]: 35.4%
viability, T/C [15]: 29.9%
viability, T/C [16]: 32.2%
viability, T/C [17]: 33.9%
viability, T/C [18]: 28.5%
viability, T/C [19]: 20.9%
viability, T/C [20]: 21.5%
viability, T/C [21]: 21.2%
viability, T/C [22]: 20.8%
viability, T/C [23]: 17.6%
viability, T/C [24]: 8.28%
viability, T/C [25]: 4.94%
viability, T/C [26]: 5.81%
viability, T/C [27]: 5.39%
viability, T/C [28]: 6.54%
viability, T/C [29]: 6.25%
viability, T/C [30]: 7.04%
viability, T/C [31]: 0.98%
viability, T/C [32]: 0.81%
viability, T/C [33]: 0.76%
viability, T/C [34]: 0.79%
viability, T/C [35]: 0.84%
viability, T/C [36]: 2.58%
